In patent US10309967B2, “Methods of diagnosing bipolar disorders and screening for therapeutic compounds” (National University Corporation Chiba University, priority 2015, dated 2019):
“Also recorded” adds a separate entry of the source.

System: Aco1
Assay: Quantitative PCR of Aco1 mRNA in rat prefrontal cortex and hippocampus after Li or VPA
Type: in vivo
Conditions: normalized to Gapdh; for Aco1 gene expression: relative to control, mean ± SD; for mRNA levels of Aco1: rat prefrontal cortex and hippocampus, chronic (4-weeks) treatment, vs control
Description: Real-time quantitative RT-PCR analysis was conducted using an ABI7900HT Fast Real-Time PCR System (Applied Biosystems, Foster City, Calif.) in both human and rat samples. TaqMan probes and primers for the seven genes (ACO1, ACO2, IDH1, IDH2, IDH3A, IDH3B, IDH3G) and GAPDH (an internal control) (Table 11) were TAQMAN® Gene Expression Assays products (Applied Biosystems).
The CSF concentrations of 116 major metabolites from several pathways were measured. […] Male Sprague-Dawley rats (Japan SLC Inc., Shizuoka, Japan) aged 6 weeks old were used in this study. All rats were housed in groups of three per cage in a room maintained at 23° C.±2° C. and 60±10% humidity with a 12/12 hour light/dark cycle (lights on at 7:00 a.m.). The rats were given free access to food and water. Animal care and use were conducted in accordance with the Institutional Guidelines for Animal Care and Use of Otsuka Pharmaceutical Co., Ltd. (Tokushima, Japan). […] The drinking water was replaced twice a week. […] All animals were decapitated on day 30 after CSF sampling, and brain regions (prefrontal cortex, and hippocampus) were dissected rapidly on ice. Metabolomic analyses of rat CSF samples were performed as described herein.
Prefrontal cortex, and hippocampus were dissected rapidly on ice and stored in RNA later (Applied Biosystems) at 4° C. until used for RNA isolation, cDNA synthesis and polymerase chain reaction (PCR) amplification. The total RNA was extracted using the RNeasy Lipid Tissue Mini Kit (QIAGEN) following the instructions of manufacturer. RNA yield and integrity was assessed using Nanodrop (NanoDrop Technologies). Reverse transcription of total RNA was done using the […] VILO cDNA Synthesis Kit (Invitrogen). In the quantitative PCR, the cDNA was amplified using commercial TaqMan assays (Applied Biosystems) for rat Idh3A (Rn00586270_m1), Idh3B (Rn00504589_g1), Aco1 (Rn00569045_m1), Aco2 (Rn00577876_m1) and Gapdh (Rn01775763_g1) with an ABI 7500 Fast Real-Time PCR system (Applied Biosystems). (Table 17) Reactions were performed in triplicates. All reactions were normalized to Gapdh and presented as relative expression changes compared to control.

SMILES | Aco1 gene expression (rat hippocampus) | mRNA levels of Aco1 | Aco1 gene expression (rat prefrontal cortex) | mRNA levels of Aco1 (sodium salt)
O=C([O-])[O-].[Li+].[Li+] [Li, lithium carbonate] | 1.0171 ± 0.0497 | did not alter; also recorded: not altered | 1.0091 ± 0.1737 | –
CCCC(CCC)C(=O)[O-].[Na+] [VPA, valproic acid sodium salt] | 1.0956 ± 0.0520 | – | 1.1550 ± 0.1237 | did not alter; also recorded: not altered
